For this assay, the system named is ZnT8_186–194-reactive CD8^+ T-cell clones. The class given is cell-based, human. The note with it: MMr co-staining (Fig. 7D) and in-vitro recall (Fig. 7E); clones D222D 2, D349D 178B9, H017N A1, H328C 9C8.

Regarding KAANIVLTV [B. stercoris mimotope], the “ZnT8_186–194-reactive clones cross-recognizing the mimotope” value is 1 of 4.

(Values after publication PMC5874133 (Science immunology, 2018).)
